≈ marks a conversion by molar mass, not a printed value. Square brackets hold non-standard residues; d marks the D form. Peptide text beside a SMILES is read from it. * marks the point of attachment. NMeR = CN[C@@H](CCCNC(=N)N)C(=O)O; NMeI = CC[C@H](C)[C@H](NC)C(=O)O; Tridecanoyl = CCCCCCCCCCCCC(=O)*; NMeL = CN[C@@H](CC(C)C)C(=O)O; Undecanoyl = CCCCCCCCCCC(=O)*; NMeK = CN[C@@H](CCCCN)C(=O)O
How the values were obtained:
Staphylococcus aureus [1] = assay: Antibacterial activity against methicillin-resistant Staphylococcus aureus ATCC 33591 assessed as reduction in bacterial growth incubated for 18 hrs by agar dilution method; format: functional
Enterococcus faecium = assay: Antibacterial activity against vancomycin resistant Enterococcus faecium ATCC 700221 assessed as inhibition of bacterial growth incubated for 48 hrs by CLSI-based broth microdilution assay; format: functional
[2] = Hemolytic activity in human RBC assessed as hemolysis measured after 24 hrs; format: toxicity, cell-based, Erythrocyte; conditions: red blood cells
Klebsiella pneumoniae [3] = assay: Antimicrobial activity against Klebsiella pneumoniae ATCC 700603 assessed as reduction in microbial growth incubated for 18 hrs by Mueller-Hinton Broth based microdilution assay; format: functional
Pseudomonas aeruginosa [4] = assay: Antimicrobial activity against Pseudomonas aeruginosa ATCC 27853 assessed as reduction in microbial growth incubated for 18 hrs by Mueller-Hinton Broth based microdilution assay; format: functional
Staphylococcus aureus [5] = assay: Antibacterial activity against Staphylococcus aureus ATCC 25923 assessed as reduction in bacterial growth incubated for 18 hrs by Mueller-Hinton Broth based microdilution assay; format: functional
Bacillus subtilis [6] = assay: Antimicrobial activity against Bacillus subtilis ATCC 23857 assessed as reduction in microbial growth incubated for 18 hrs by Mueller-Hinton Broth based microdilution assay; format: functional
Escherichia coli [7] = assay: Antibacterial activity against Escherichia coli ATCC 25922 assessed as reduction in bacterial growth incubated for 18 hrs by Mueller-Hinton Broth based microdilution assay; format: functional
Bacillus subtilis [8] = assay: Antibacterial activity against Bacillus subtilis ATCC 23857 assessed as reduction in bacterial cell growth measured for 18 hrs by Mueller-Hinton broth based two-fold serial dilution method; format: functional
Escherichia coli [9] = assay: Antibacterial activity against Escherichia coli ATCC 25922 assessed as reduction in bacterial cell growth measured for 18 hrs by Mueller-Hinton broth based two-fold serial dilution method; format: functional
Klebsiella pneumoniae [10] = assay: Antibacterial activity against Klebsiella pneumoniae ATCC 700603 assessed as reduction in bacterial cell growth measured for 18 hrs by Mueller-Hinton broth based two-fold serial dilution method; format: functional
Staphylococcus aureus [11] = assay: Antibacterial activity against Staphylococcus aureus ATCC 25923 assessed as reduction in bacterial cell growth measured for 18 hrs by Mueller-Hinton broth based two-fold serial dilution method; format: functional
Pseudomonas aeruginosa [12] = assay: Antibacterial activity against Pseudomonas aeruginosa ATCC 27853 assessed as reduction in bacterial cell growth measured for 18 hrs by Mueller-Hinton broth based two-fold serial dilution method; format: functional

SMILES | MIC (Staphylococcus aureus [1]) [µM] | MIC (Enterococcus faecium) [µM] | HC50 at 24 h [2] [µM] | MIC (Klebsiella pneumoniae [3]) [µM] | MIC (Pseudomonas aeruginosa [4]) [µM] | MIC (Staphylococcus aureus [5]) [µM] | MIC (Bacillus subtilis [6]) [µM] | MIC (Escherichia coli [7]) [µM] | MIC (Bacillus subtilis [8]) [µM] | MIC (Escherichia coli [9]) [µM] | MIC (Klebsiella pneumoniae [10]) [µM] | MIC (Staphylococcus aureus [11]) [µM] | MIC (Pseudomonas aeruginosa [12]) [µM]
CC[C@H](C)[C@H](NC(=O)[C@H](CCCCN)NC(=O)[C@H](CCCCN)NC(=O)[C@H](CC(C)C)NC(=O)[C@H](CC(C)C)NC(=O)CN)C(=O)N[C@@H](CCCCN)C(=O)N[C@@H](Cc1c[nH]c2ccccc12)C(=O)N[C@@H](CC(C)C)C(=O)N[C@@H](CC(C)C)C(N)=O (H-GLLKKIKWLL-NH2) | 28.4 (≈ 34.4 µg/mL) | 22.1 (≈ 26.8 µg/mL) | 152 |  |  |  |  |  |  |  |  |  | 
CC[C@H](C)[C@H](NC(=O)[C@H](CCCNC(=N)N)NC(=O)[C@H](CCCCN)NC(=O)[C@H](CC(C)C)NC(=O)[C@H](CC(C)C)NC(=O)CN)C(=O)N[C@@H](CCCCN)C(=O)N[C@H](C(=O)N[C@@H](CC(C)C)C(=O)N(C)[C@@H](CC(C)C)C(N)=O)[C@@H](C)O (H-GLLKRIKTL[NMeL]-NH2) |  |  |  | > 128 | 32 | > 128 | 64 | > 128 |  |  |  |  | 
CC[C@H](C)[C@H](NC(=O)[C@H](CCCNC(=N)N)NC(=O)[C@H](CCCCN)NC(=O)[C@H](CC(C)C)NC(=O)[C@H](CC(C)C)NC(=O)CN)C(=O)N[C@@H](CCCCN)C(=O)N[C@H](C(=O)N(C)[C@@H](CC(C)C)C(=O)N[C@@H](CC(C)C)C(N)=O)[C@@H](C)O (H-GLLKRIKT[NMeL]L-NH2) |  |  |  | > 128 | 28 | > 128 | 128 | > 128 |  |  |  |  | 
CC[C@H](C)[C@H](NC(=O)[C@H](CCCNC(=N)N)NC(=O)[C@H](CCCCN)NC(=O)[C@H](CC(C)C)NC(=O)[C@H](CC(C)C)NC(=O)CN)C(=O)N(C)[C@@H](CCCCN)C(=O)N[C@H](C(=O)N[C@@H](CC(C)C)C(=O)N[C@@H](CC(C)C)C(N)=O)[C@@H](C)O (H-GLLKRI[NMeK]TLL-NH2) |  |  |  | > 128 | 128 | > 128 | 128 | > 128 |  |  |  |  | 
CC[C@H](C)[C@@H](C(=O)N[C@@H](CCCCN)C(=O)N[C@H](C(=O)N[C@@H](CC(C)C)C(=O)N[C@@H](CC(C)C)C(N)=O)[C@@H](C)O)N(C)C(=O)[C@H](CCCNC(=N)N)NC(=O)[C@H](CCCCN)NC(=O)[C@H](CC(C)C)NC(=O)[C@H](CC(C)C)NC(=O)CN (H-GLLKR[NMeI]KTLL-NH2) |  |  |  | > 128 | > 128 | > 128 | 128 | > 128 |  |  |  |  | 
CC[C@H](C)[C@H](NC(=O)[C@H](CCCNC(=N)N)N(C)C(=O)[C@H](CCCCN)NC(=O)[C@H](CC(C)C)NC(=O)[C@H](CC(C)C)NC(=O)CN)C(=O)N[C@@H](CCCCN)C(=O)N[C@H](C(=O)N[C@@H](CC(C)C)C(=O)N[C@@H](CC(C)C)C(N)=O)[C@@H](C)O (H-GLLK[NMeR]IKTLL-NH2) |  |  |  | > 128 | 128 | > 128 | 128 | > 128 |  |  |  |  | 
CC[C@H](C)[C@H](NC(=O)[C@H](CCCNC(=N)N)NC(=O)[C@H](CCCCN)N(C)C(=O)[C@H](CC(C)C)NC(=O)[C@H](CC(C)C)NC(=O)CN)C(=O)N[C@@H](CCCCN)C(=O)N[C@H](C(=O)N[C@@H](CC(C)C)C(=O)N[C@@H](CC(C)C)C(N)=O)[C@@H](C)O (H-GLL[NMeK]RIKTLL-NH2) |  |  |  | > 128 | 64 | > 128 | 128 | > 128 |  |  |  |  | 
CC[C@H](C)[C@H](NC(=O)[C@H](CCCNC(=N)N)NC(=O)[C@H](CCCCN)N(C)C(=O)[C@H](CC(C)C)NC(=O)[C@H](CC(C)C)NC(=O)CN)C(=O)N(C)[C@@H](CCCCN)C(=O)N[C@H](C(=O)N[C@@H](CC(C)C)C(=O)N[C@@H](CC(C)C)C(N)=O)[C@@H](C)O (H-GLL[NMeK]RI[NMeK]TLL-NH2) |  |  |  | > 128 | 128 | > 128 | > 128 | > 128 |  |  |  |  | 
CC[C@H](C)[C@H](NC(=O)[C@H](CCCNC(=N)N)N(C)C(=O)[C@H](CCCCN)N(C)C(=O)[C@H](CC(C)C)NC(=O)[C@H](CC(C)C)NC(=O)CN)C(=O)N[C@@H](CCCCN)C(=O)N[C@H](C(=O)N[C@@H](CC(C)C)C(=O)N[C@@H](CC(C)C)C(N)=O)[C@@H](C)O (H-GLL[NMeK][NMeR]IKTLL-NH2) |  |  |  | > 128 | > 128 | > 128 | > 128 | > 128 |  |  |  |  | 
CC[C@H](C)[C@H](NC(=O)[C@H](CCCNC(=N)N)NC(=O)[C@H](CCCCN)NC(=O)[C@H](CC(C)C)N(C)C(=O)[C@H](CC(C)C)NC(=O)CN)C(=O)N[C@@H](CCCCN)C(=O)N[C@H](C(=O)N[C@@H](CC(C)C)C(=O)N[C@@H](CC(C)C)C(N)=O)[C@@H](C)O (H-GL[NMeL]KRIKTLL-NH2) |  |  |  | > 128 | 64 | > 128 | 64 | > 128 |  |  |  |  | 
CC[C@H](C)[C@H](NC(=O)[C@H](CCCNC(=N)N)NC(=O)[C@H](CCCCN)NC(=O)[C@H](CC(C)C)N(C)C(=O)[C@H](CC(C)C)NC(=O)CN)C(=O)N[C@@H](CCCCN)C(=O)N[C@H](C(=O)N(C)[C@@H](CC(C)C)C(=O)N[C@@H](CC(C)C)C(N)=O)[C@@H](C)O (H-GL[NMeL]KRIKT[NMeL]L-NH2) |  |  |  | > 128 | > 128 | > 128 | > 128 | > 128 |  |  |  |  | 
CC[C@H](C)[C@@H](C(=O)N[C@@H](CCCCN)C(=O)N[C@H](C(=O)N[C@@H](CC(C)C)C(=O)N[C@@H](CC(C)C)C(N)=O)[C@@H](C)O)N(C)C(=O)[C@H](CCCNC(=N)N)NC(=O)[C@H](CCCCN)NC(=O)[C@H](CC(C)C)N(C)C(=O)[C@H](CC(C)C)NC(=O)CN (H-GL[NMeL]KR[NMeI]KTLL-NH2) |  |  |  | > 128 | > 128 | > 128 | 128 | > 128 |  |  |  |  | 
CC[C@H](C)[C@H](NC(=O)[C@H](CCCNC(=N)N)NC(=O)[C@H](CCCCN)NC(=O)[C@H](CC(C)C)NC(=O)[C@H](CC(C)C)N(C)C(=O)CN)C(=O)N[C@@H](CCCCN)C(=O)N[C@H](C(=O)N[C@@H](CC(C)C)C(=O)N[C@@H](CC(C)C)C(N)=O)[C@@H](C)O (H-G[NMeL]LKRIKTLL-NH2) |  |  |  | > 128 | 32 | > 128 | 16 | > 128 |  |  |  |  | 
CC[C@H](C)[C@H](NC(=O)[C@H](CCCNC(=N)N)NC(=O)[C@H](CCCCN)NC(=O)[C@H](CC(C)C)NC(=O)[C@H](CC(C)C)N(C)C(=O)CN)C(=O)N[C@@H](CCCCN)C(=O)N[C@H](C(=O)N[C@@H](CC(C)C)C(=O)N(C)[C@@H](CC(C)C)C(N)=O)[C@@H](C)O (H-G[NMeL]LKRIKTL[NMeL]-NH2) |  |  |  | > 128 | 128 | > 128 | > 128 | > 128 |  |  |  |  | 
CC[C@H](C)[C@H](NC(=O)[C@H](CCCNC(=N)N)NC(=O)[C@H](CCCCN)NC(=O)[C@H](CC(C)C)N(C)C(=O)[C@H](CC(C)C)N(C)C(=O)CN)C(=O)N[C@@H](CCCCN)C(=O)N[C@H](C(=O)N(C)[C@@H](CC(C)C)C(=O)N(C)[C@@H](CC(C)C)C(N)=O)[C@@H](C)O (H-G[NMeL][NMeL]KRIKT[NMeL][NMeL]-NH2) |  |  |  | > 128 | 128 | > 128 | > 128 | > 128 |  |  |  |  | 
CCCCCCCCCCCCC(=O)NCC(=O)N[C@@H](CC(C)C)C(=O)N[C@@H](CC(C)C)C(=O)N[C@@H](CCCCN)C(=O)N[C@@H](CCCNC(=N)N)C(=O)N[C@H](C(=O)N[C@@H](CCCCN)C(=O)N[C@H](C(=O)N[C@@H](CC(C)C)C(=O)N[C@@H](CC(C)C)C(N)=O)[C@@H](C)O)[C@@H](C)CC (Tridecanoyl-GLLKRIKTLL-NH2) |  |  |  |  |  |  |  |  | 4 (≈ 5.4 µg/mL) | 8 (≈ 10.8 µg/mL) | 16 (≈ 21.6 µg/mL) | 8 (≈ 10.8 µg/mL) | 8 (≈ 10.8 µg/mL)
CCCCCCCCCCC(=O)NCC(=O)N[C@@H](CC(C)C)C(=O)N[C@@H](CC(C)C)C(=O)N[C@@H](CCCCN)C(=O)N[C@@H](CCCNC(=N)N)C(=O)N[C@H](C(=O)N[C@@H](CCCCN)C(=O)N[C@H](C(=O)N[C@@H](CC(C)C)C(=O)N[C@@H](CC(C)C)C(N)=O)[C@@H](C)O)[C@@H](C)CC (Undecanoyl-GLLKRIKTLL-NH2) |  |  |  |  |  |  |  |  | 4 (≈ 5.29 µg/mL) | 8 (≈ 10.6 µg/mL) | 8 (≈ 10.6 µg/mL) | 8 (≈ 10.6 µg/mL) | 8 (≈ 10.6 µg/mL)

— ChEMBL document CHEMBL5608163, “Structure modification of anoplin for fighting resistant bacteria” (Eur J Med Chem, 2024)
